We go through 35 compounds from patent US20260166039A1 (SCHRÖDINGER, INC., priority 2022, published 2026).

Each structure is given as a SMILES string. A value given as a limit tells only on which side of the number the result lay.

T1 sequence (P30291 299-569 limits assumed): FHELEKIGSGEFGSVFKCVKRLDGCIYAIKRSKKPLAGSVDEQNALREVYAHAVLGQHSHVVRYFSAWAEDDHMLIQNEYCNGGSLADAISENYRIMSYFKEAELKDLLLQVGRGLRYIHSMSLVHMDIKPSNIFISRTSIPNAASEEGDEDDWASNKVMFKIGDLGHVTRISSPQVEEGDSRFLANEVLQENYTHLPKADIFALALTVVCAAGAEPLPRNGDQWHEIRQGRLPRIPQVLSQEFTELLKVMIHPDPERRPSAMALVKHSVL

The first experiment concerns the target T1, Wee1 kinase domain (Homo sapiens, UniProt P30291).
T1 construct: Wee1 kinase domain was purchased from Carna (catalog #05-177); purchased Carna 05-177
The experiment can be described thus: Wee1 Kinase Biochemical Assay (ADP-Glo). As to conditions: 1 nM Wee1 enzyme, 15 uM ATP, 4 hours at 25° C. Put shortly: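 Compounds tested against 1 nM Wee1 kinase domain in Tris buffer containing 20 mM MgCl2, BSA and 2 mM DTT, with 15 uM ATP and poly(Lys,Tyr) substrate for 4 h at 25 °C. Luminescent ADP detection gave percent inhibition, normalized to DMSO and saturating inhibitor.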
For orientation: ADP-Glo turns the ADP formed in a reaction into a luminescent signal.
`CC1(C)C[C@H]2N(c3cccc(N=S(C)(C)=O)n3)c3nc(Nc4cncc(C(F)F)c4)ncc3[C@@]2(C)CO1` (single isomer, unassigned) [Example 815] returned an IC50 of under 0.01 µM.

The compound `CC1(C)C[C@H]2N(c3cccc(N=S(C)(C)=O)n3)c3nc(Nc4ccn(C5CCN(C6COC6)CC5)c(=O)c4)ncc3[C@@]2(C)CO1` (single isomer, unassigned) [Example 824] registered an IC50 of under 0.01 µM.

Staying with this experiment, now noted: Wee1 kinase domain, 15 uM ATP, ADP-Glo.
`CN1CC[C@@](C)(c2ccc(Nc3ncc4c(n3)N(c3cccc(N=S(C)(C)=O)n3)[C@H]3CC(C)(C)OC[C@@]43C)cc2)C1` (single isomer, unassigned) [Example 170] returned an IC50 of 0.01 to 0.1 µM.

With `CC1(C)C[C@@H]2N(c3cccc(N=S(C)(C)=O)n3)c3nc(Nc4ccc(O[C@@H]5CCNC5)cc4)ncc3[C@]2(C)CO1` (single isomer, unassigned) [Example 156], the IC50 is 0.01 to 0.1 µM.

Compound `Cc1cc(Nc2ncc3c(n2)N(c2cccc(N4C(=O)OC[C@@H]4C)n2)[C@H]2CC(C)(C)OC[C@@]32C)ccc1N1C[C@H]2C[C@@H]1CN2C` (single isomer, unassigned) [Example 288] came in with an IC50 of 0.01 to 0.1 µM.

Compound `CNCc1ccc(Nc2ncc3c(n2)N(c2cccc(N4C(=O)OC[C@@H]4C)n2)[C@H]2CC(C)(C)OC[C@@]32C)cc1` (single isomer, unassigned) [Example 359] yielded an IC50 of 0.01 to 0.1 µM.

The compound `C[C@H]1CN(c2ccc(Nc3ncc4c(n3)N(c3cccc(N5C(=O)OC[C@@H]5C)n3)[C@H]3CC(C)(C)OC[C@@]43C)cc2)CCN1C` (single isomer, unassigned) [Example 314] returned an IC50 of 0.01 to 0.1 µM.

The compound `CN1C[C@@H]2C[C@H]1CN2c1ccc(Nc2ncc3c(n2)N(c2cccc(N=S(C)(C)=O)n2)[C@H]2CC(C)(C)OC[C@@]32C)cc1` (single isomer, unassigned) [Example 123] had an IC50 of 0.1 to 1 µM.

Take `CN1CC[C@@H](c2ccc(Nc3ncc4c(n3)N(c3cccc(N=S(C)(C)=O)n3)[C@H]3CC(C)(C)OC[C@@]43C)cc2)C1` (single isomer, unassigned) [Example 130]: the IC50 fell in the range of 0.1 to 1 µM.

The compound `Cc1cc(Nc2ncc3c(n2)N(c2cccc(N4C(=O)OC[C@@H]4C)n2)[C@H]2CC(C)(C)OC[C@@]32C)ccc1O[C@@H]1CCN(C)C1` (single isomer, unassigned) [Example 346] returned an IC50 of 0.01 to 0.1 µM.

In turn, `CN1C[C@H]2C[C@@H]1CN2c1ccc(Nc2ncc3c(n2)N(c2cccc(N=S(C)(C)=O)n2)[C@H]2CC(C)(C)OC[C@@]32C)cc1` (single isomer, unassigned) [Example 121] displayed an IC50 of 0.1 to 1 µM.

Compound `CN1CCC(n2cc(Nc3ncc4c(n3)N(c3cccc(C(C)(C)O)n3)[C@H]3CC(C)(C)OC[C@@]43C)cn2)CC1` (single isomer, unassigned) [Example 12] registered an IC50 of 0.1 to 1 µM.

`C[C@@H]1CN(c2ccc(Nc3ncc4c(n3)N(c3cccc(N5C(=O)OC[C@@H]5C)n3)[C@H]3CC(C)(C)OC[C@@]43C)cc2)CCN1C` (single isomer, unassigned) [Example 312] registered an IC50 of 0.01 to 0.1 µM.

`CN1CC[C@](C)(c2ccc(Nc3ncc4c(n3)N(c3cccc(N=S(C)(C)=O)n3)[C@H]3CC(C)(C)OC[C@@]43C)cc2)C1` (single isomer, unassigned) [Example 167] yielded an IC50 of 0.01 to 0.1 µM.

Take `CN[C@@H](Cc1ccc(Nc2ncc3c(n2)N(c2cccc(N4C(=O)OC[C@@H]4C)n2)[C@H]2CC(C)(C)OC[C@@]32C)cc1)C(=O)O` (single isomer, unassigned) [Example 320]: the IC50 was in the range of 0.1 to 1 µM.

Compound `C[C@H]1COC(=O)N1c1cccc(N2c3nc(Nc4ccc([C@@H]5CCNC5)cc4)ncc3[C@]3(C)COC(C)(C)C[C@H]23)n1` (single isomer, unassigned) [Example 274] registered an IC50 of 0.01 to 0.1 µM.

Compound `C[C@H]1COC(=O)N1c1cccc(N2c3nc(Nc4ccc(N5C[C@H]6C[C@@H](C5)N6C)cc4)ncc3[C@]3(C)COC(C)(C)C[C@H]23)n1` (single isomer, unassigned) [Example 353] showed an IC50 of 0.01 to 0.1 µM.

For the compound `CN1C[C@@H]2C[C@H]1CN2c1ccc(Nc2ncc3c(n2)N(c2cccc(N=S(C)(C)=O)n2)[C@H]2CC(C)(C)OC[C@@]32C)cc1F` (single isomer, unassigned) [Example 179], the IC50 lay in the range of 0.1 to 1 µM.

Still in this experiment, the particulars now being: class symbols; 1 nM Wee1 enzyme, 15 uM ATP, 4 hours at 25° C.
Consider `CN1CC[C@@H](c2ccc(Nc3ncc4c(n3)N(c3cccc(N5CCCC5=O)n3)[C@H]3CC(C)(C)OC[C@@]43C)cc2)C1` [Example 643, 1-(6-((4bS,8aS)-4b,7,7-trimethyl-2-((4-((S)-1-methylpyrrolidin-3-yl)phenyl)amino)-4b,7,8,8a-tetrahydropyrano[3′,4′:4,5]pyrrolo[2,3-d]pyrimidin-9(5H)-yl)pyridin-2-yl)pyrrolidin-2-one], for which the IC50 was 0.01 to 0.1 µM.

`CNCc1cccc(N2c3nc(Nc4ccc(=O)n(C)c4)ncc3[C@]3(C)COC(C)(C)C[C@H]23)n1` (single isomer, unassigned) [Example 461] yielded an IC50 of at least 1 µM.

The compound `CN[C@H]1CCc2ccc(N3c4nc(Nc5ccc(N6CCOCC6)cc5)ncc4[C@@]4(C)COC(C)(C)C[C@@H]34)nc21` (single isomer, unassigned) [Example 552] gave an IC50 of 0.1 to 1 µM.

Consider `Cc1cc(Nc2ncc3c(n2)N(c2cccc(C(C)(C)O)n2)[C@H]2CC(C)(C)OC[C@@]32C)ccc1N1C[C@H]2C[C@@H]1CN2C` (single isomer, unassigned) [Example 426], for which the IC50 was in the range of 0.01 to 0.1 µM.

Regarding `Cc1cc(Nc2ncc3c(n2)N(c2cccc(N4CCOC4=O)n2)[C@H]2CC(C)(C)OC[C@@]32C)ccc1C1CCN(C)CC1` (single isomer, unassigned) [Example 596], the IC50 lay in the range of 0.01 to 0.1 µM.

`CN[C@H](C)c1cccc(N2c3nc(Nc4ccc(N5CCOCC5)cc4)ncc3[C@]3(C)COC(C)(C)C[C@H]23)n1` (single isomer, unassigned) [Example 550] registered an IC50 of 0.1 to 1 µM.

Compound `CC[C@@]1(O)CCc2ccc(N3c4nc(Nc5ccc(N6CCN(C)CC6)cc5)ncc4[C@@]4(C)COC(C)(C)C[C@@H]34)nc21` [Example 787, (R)-7-ethyl-2-((4bR,8aR)-4b,7,7-trimethyl-2-((4-(4-methylpiperazin-1-yl)phenyl)amino)-4b,7,8,8a-tetrahydropyrano[3′,4′:4,5]pyrrolo[2,3-d]pyrimidin-9(5H)-yl)-6,7-dihydro-5H-cyclopenta[b]pyridin-7-ol] registered an IC50 of under 0.01 µM.

In the case of `CC1(C)C[C@@H]2N(c3cccc(N4CCOC4=O)n3)c3nc(Nc4ccc([C@@H]5CCNC5)cc4)ncc3[C@]2(C)CO1` (single isomer, unassigned) [Example 606], the half-inhibitory concentration (IC50) was in the range of 0.01 to 0.1 µM.

Regarding `CN1CC[C@@H](n2ccc(Nc3ncc4c(n3)N(c3cccc(N=S(C)(C)=O)n3)[C@@H]3CC(C)(C)OC[C@]43C)cc2=O)C1` [Example 804, 4-(((4bR,8aR)-9-(6-((dimethyl(oxo)-16-sulfaneylidene)amino)pyridin-2-yl)-4b,7,7-trimethyl-4b,5,7,8,8a,9-hexahydropyrano[3′,4′:4,5]pyrrolo[2,3-d]pyrimidin-2-yl)amino)-1-((R)-1-methylpyrrolidin-3-yl)pyridin-2(1H)-one], the IC50 is under 0.01 µM.

As for `CC1(C)C[C@@H]2N(c3cccc(N4CCOC4=O)n3)c3nc(Nc4ccc(O[C@@H]5CCNC5)cc4)ncc3[C@]2(C)CO1` [Example 623, 3-(6-((4bS,8aS)-4b,7,7-trimethyl-2-((4-(((R)-pyrrolidin-3-yl)oxy)phenyl)amino)-4b,7,8,8a-tetrahydropyrano[3′,4′:4,5]pyrrolo[2,3-d]pyrimidin-9(5H)-yl)pyridin-2-yl)oxazolidin-2-one], the 50% inhibitory concentration (IC50) is 0.01 to 0.1 µM.

Compound `CN1CC2(C1)CN(c1ccc(Nc3ncc4c(n3)N(c3cccc(C(C)(C)O)n3)[C@H]3CC(C)(C)OC[C@@]43C)cc1)C2` (single isomer, unassigned) [Example 444] showed an IC50 of 0.1 to 1 µM.

Consider `CNCc1cccc(N2c3nc(Nc4ccc(N5CCOC[C@H]5C)cc4)ncc3[C@]3(C)COC(C)(C)C[C@H]23)n1` (single isomer, unassigned) [Example 474], for which the IC50 lay in the range of 0.1 to 1 µM.

For `CC1(C)C[C@@H]2N(c3cccc(N4CCOC4=O)n3)c3nc(Nc4ccc([C@@H]5CNC[C@@H]5F)cc4)ncc3[C@]2(C)CO1` [Example 674, 3-(6-((4bS,8aS)-2-((4-((3R,4R)-4-fluoropyrrolidin-3-yl)phenyl)amino)-4b,7,7-trimethyl-4b,7,8,8a-tetrahydropyrano[3′,4′:4,5]pyrrolo[2,3-d]pyrimidin-9(5H)-yl)pyridin-2-yl)oxazolidin-2-one], the IC50 is 0.01 to 0.1 µM.

The compound `CN1CC2(C1)CN(c1ccc(Nc3ncc4c(n3)N(c3cccc(N5CCCC5=O)n3)[C@H]3CC(C)(C)OC[C@@]43C)cc1)C2` [Example 691, 1-(6-((4bS,8aS)-4b,7,7-trimethyl-2-((4-(6-methyl-2,6-diazaspiro[3.3]heptan-2-yl)phenyl)amino)-4b,7,8,8a-tetrahydropyrano[3′,4′:4,5]pyrrolo[2,3-d]pyrimidin-9(5H)-yl)pyridin-2-yl)pyrrolidin-2-one] had an IC50 of 0.1 to 1 µM.

On to `CC[C@]1(O)CCc2ccc(N3c4nc(Nc5ccc(N6CCN(C)CC6)cc5)ncc4[C@@]4(C)COC(C)(C)C[C@@H]34)nc21` [Example 788, (S)-7-ethyl-2-((4bR,8aR)-4b,7,7-trimethyl-2-((4-(4-methylpiperazin-1-yl)phenyl)amino)-4b,7,8,8a-tetrahydropyrano[3′,4′:4,5]pyrrolo[2,3-d]pyrimidin-9(5H)-yl)-6,7-dihydro-5H-cyclopenta[b]pyridin-7-ol], for which the IC50 was under 0.01 µM.

Consider `CC1(C)C[C@@H]2N(c3cccc(C(C)(C)N)n3)c3nc(Nc4ccc(N5CCOCC5)cc4)ncc3[C@]2(C)CO1` (single isomer, unassigned) [Example 568], for which the IC50 is 0.01 to 0.1 µM.

`CC1(C)C[C@@H]2N(c3ccc4c(n3)CCNC4)c3nc(Nc4ccc(N5CCOCC5)cc4)ncc3[C@]2(C)CO1` (single isomer, unassigned) [Example 561] yielded an IC50 of at least 1 µM.

Usually IC50 stands for the concentration that gives 50% inhibition.
